Measured values published in US7138543B2, “Thiolalkyl benzoic acid derivatives” (Guilford Pharmaceuticals Inc., priority 2001, dated 2006).

What was measured:
[1] = tested on: STZ diabetic rats; assay: Reversal of diabetic neuropathy in STZ model, delayed dosing: thermal hyperalgesia; assay type: in vivo; conditions: for neuropathic hyperalgesia (thermal response latency): daily p.o., treatment from 5 weeks post STZ, within two weeks of treatment, FIG. 22
Protocol: (§1) In vivo Assay of NAALADase Inhibitors—Reversal of Diabetic Neuropathy in STZ Model
(§2) General Method for STZ Model—Delayed Dosing
(§3) Rats (200–225 grams) were injected with STZ (70 mg/kg) into the tail vein. Diabetes (>350 mg/dl) was confirmed in all rats, 4 weeks after STZ administration. Rats were left untreated until 35–49 days after STZ. Compound D (1, 3, or 10 mg/kg), Compound E (10 mg/kg), or vehicle were dosed daily p.o. following confirmation of hyperalgesia and/or nerve conduction velocity deficits. In separate experiments, onset of treatment was delayed until 60 to 90 days after STZ administration. Nerve conduction velocity or withdrawal response to thermal stimulation of hind paws was measured at intervals, usually bi-weekly for thermal response and monthly for nerve conduction velocity.
Animals were acclimated to the apparatus for at least 5 min. An infra-red source was placed under below the plantar surface of the rat hind-paw. The intensity of the source was adjusted so that latency for normal rats was about 10 secs. Animals were tested for thermal response latency according to the method of Hargreaves et al (Pain 77–88, 1988). Each animal was tested 8 times (4 each hind limb) and the latency of response recorded automatically to nearest 0.1 sec. An average of the last 4 measurements for each paw was calculated (8 total measurements) and noted for each rat.

[2] = tested on: STZ diabetic rats; assay: Reversal of diabetic neuropathy in STZ model, delayed dosing: nerve conduction velocity; assay type: in vivo; conditions: for motor nerve conduction velocity: daily p.o., within 8 weeks of dosing, persisted through 12 weeks, FIG. 23
Protocol: as §1, §2, §3
Nerve Conduction Velocity Measurements
Sensory and motor nerve conduction velocities were evaluated using the method of De Koning and Gispen (Peptides 8: 415–422, 1987). Electrophysiological evaluation was carried out within one hour of dosing. Animals were anesthetized with isoflurane and stimulating needle electrodes were inserted close to the sciatic nerve at the sciatic notch and the tibial nerve near the ankle. Recording electrodes were placed over the foot muscles. Stimuli were applied and responses recorded. Motor and sensory nerve conduction velocities were calculated by measuring the distance between the sciatic notch and ankle sites, and the latency between the M-wave and the H-reflex.

[3] = tested on: rats with unilateral elevation of intraocular pressure; assay: Experimental rat glaucoma (IOP elevation, optic nerve fiber counting); assay type: in vivo; conditions: for FIBER NUMBER: 10 mg/kg daily intraperitoneal; for PERCENT DIFFERENCE in fiber number between glaucoma and normal eye: positive value indicates fewer fibers in the glaucoma eye
Protocol: Protective Effect of NAALADase Inhibitors in Experimental Rat Glaucoma
(§4) All experiments complied with the Association for Research in Vision and Ophthalmology Statement for the Use of Animals in Ophthalmic and Vision Research. 82 male Brown Norway rats (Rattus norvegicus), each weighing approximately 250 gm, were treated using procedures approved by the Animal Care Committee of the Johns Hopkins University School of Medicine. The rats were housed with a 12 hour light/12 hour dark cycle and fed ad libitum.
EXPERIMENTAL GLAUCOMA: Unilateral elevation of intraocular pressure (“IOP”) was produced in 56 rats by microinjection of hypertonic saline into episcleral veins, following procedures described in Morrison, J. et al., IOVS (March 1998) 39:526–531. Beginning on the day of IOP elevation, the rats were treated daily with intraperitoneal injections of either a vehicle (23 rats with 50 mM HEPES-buffered saline) or a NAALADase inhibitor (11 rats with 10 mg/kg of Compound A and 22 rats with 10 mg/kg of Compound B). 11 saline treated rats, 11 Compound A treated rats and 11 Compound B treated rats were sacrificed at 8 weeks, and the remaining rats at 12 weeks, after initial IOP elevation.
(§5) OPTIC NERVE COUNTING: The rats were sacrificed by exsanguination under deep pentobarbital anesthesia. They were perfused through the heart with 2% paraformaldehyde/2% glutaraldehyde in 0.1 M phosphate buffer, pH 7.2, and the eyes with attached optic nerves were removed. A cross-section of the optic nerve from both experimental (glaucoma or transection) and control eyes was removed 1.5 mm posterior to the globe, 1 mm in thickness, and post-fixed in 2% osmium tetroxide in buffer. These were processed into epoxy resin, sectioned at 1 micron and stained with toluidine blue.
(§6) The area of the optic nerve cross-section was measured by outlining its outer border at 10× magnification on an image analysis system (Universal Imaging Corp., Westchester, Pa.) with Synsys digital camera and Metamorph software. Three area measurements were taken and the mean value was determined. To measure the density and fiber diameter distributions, images were captured with a 100× phase contrast objective from 10 different areas of each nerve. These were edited to eliminate non-neural objects and the size of each axon internal to the myelin sheath (its minimum diameter) and the density of axons/square mm were calculated for each image and nerve. The mean density was multiplied by total nerve area to yield fiber number for each nerve. The total fiber number in glaucoma or transection nerves was compared to the normal, fellow eye of each rat to yield a percent loss value. The number of axons counted among the 10 images was an approximately 20% sample of the 80–90,000 axons in normal rat nerves. The person measuring axon number was masked to the protocol conducted on the nerves.

[4] = tested on: rats with unilaterally transected optic nerve; assay: Optic nerve transection (optic nerve fiber counting); assay type: in vivo, Rattus norvegicus; conditions: for FIBER NUMBER: 10 mg/kg daily intraperitoneal
Protocol: as §4
OPTIC NERVE TRANSECTION: The optic nerve was transected unilaterally in 26 rats under intraperitoneal pentobarbital anesthesia. The conjunctiva was opened with scissors and the optic nerve exposed by traction on extraocular muscles. The transection was performed with microscissors 5 mm posterior to the globe, with specific attention to avoidance of injury to major ocular blood vessels. Immediately after transection, the retina was examined ophthalmoscopically to assure that the retinal arterial blood supply was not disrupted. The conjunctiva was closed with absorbable suture and the eye dressed with antibiotic ointment. Beginning on the day of transection, the rats were treated daily with intraperitoneal injections of either a vehicle (9 rats with 50 mM HEPES-buffered saline) or a NAALADase inhibitor (8 rats with 10 mg/kg of Compound A and 9 rats with 10 mg/kg of Compound B). 5 saline treated rats, 3 Compound A treated rats, and 4 Compound B treated rats were sacrificed at 2 weeks, and the remaining rats at 4 weeks, after transection.
as §5, §6

[5] = tested on: transgenic HD mice of the N171-82Q strain; assay: Huntington's disease transgenic mouse model: rotarod and locomotion; assay type: in vivo
Protocol: Neuroprotective Effect of NAALADase Inhibitors in Transgenic Mouse Model of Huntington's Disease Behavioral Testing (Rotarod) Transgenic HD mice of the […]-[…] strain and non-transgenic littermates were treated with NAALADase inhibitor Compound B (30 mg/kg) or a vehicle from 10 weeks of age. The mice were placed on a rotating rod (“rotarod”). The length of time at which the mouse fell off the rotarod was recorded as a measure of motor coordination. […] The treatment with Compound B had no effect on the rotarod performance of normal non-HD mice. The total distance traveled by the mice was also recorded as a measure of overall locomotion.

[6] = tested on: transgenic HD mice (N171-82Q); assay: Huntington's disease transgenic mouse model: survival; assay type: in vivo
Protocol: The effects of Compound B and vehicle on the survival of transgenic HD mice (N171-82Q) were evaluated. Thirteen mice (six male and seven female) were assigned to the Compound B treatment group, and fourteen mice (six male and eight female) were assigned to the vehicle treatment group. Treatment was continued until all the mice died.

[7] = tested on: STZ-diabetic rats; assay: Neuropathic pain in STZ model (Hargreaves thermal nociception); assay type: in vivo, Sprague-Dawley rats; conditions: 10 mg/kg i.p. daily, started 45 days post-STZ
Protocol: In vivo Assay of NAALADase Inhibitors on Neuropathic Pain in STZ Model
Male Sprague-Dawley rats (200–225 g) were rendered diabetic by intravenous administration of streptozotocin (“STZ”, 70 mg/kg in phosphate buffered saline). Diabetic animals were divided into five groups: one group receiving Compound A (10 mg/kg or 1 mg/kg), Compound D (10 mg/kg or 1 mg/kg) or vehicle. Another group of animals (non-STZ treated) served as non-diabetic controls. Drug/vehicle treatment was started in diabetic animals 45 days post-STZ administration. STZ-induced diabetic rats were tested for sensitivity to a heat source as soon as blood glucose levels rose to 320 mg/dl or above (30 days post STZ). The rats were then acclimated to a Hargreaves apparatus and thermal nociception was monitored using an infrared heat source directed into the dorsal surface of the hindpaw, and the time taken for the animal to remove its paw noted to the nearest 0.1 seconds (see Hargreaves et al., J. Biol. Chem. (1988) 263(36):19392–7 for a description of the experimental method). The intensity of the beam source was adjusted such that the mean latency for control animals (non-STZ treated) was approximately 10 seconds. Each animal was tested 8 times and the mean difference score (between mean non-diabetic control latency and mean diabetic latency) are graphically presented in FIGS. 7A and 7B.

[8] = tested on: BB/W diabetic rats; assay: Progression of neuropathic pain in BB/W model (withdrawal latency); assay type: in vivo; conditions: 10 mg/kg i.p. daily; vs diabetic vehicle-treated rats, from 4 weeks through six months of treatment, FIG. 11
Text: In vivo Assay of NAALADase Inhibitors on Progression of Neuropathic Pain in BB/W Models
(§7) Male BB/W rats (BRI, Mass) spontaneously develop a cell mediated autoimmune destruction of pancreatic B cells, resulting in onset of insulin-dependent (Type I) diabetes (Awata, Guberski, Endocrinology (1995) 136(12):5731–5). […] This renders them valuable for experimental trials of new compounds for future treatments of this major disorder. In the present study, Compound A and Compound D were examined for their ability to alter the progression of diabetic neuropathy. The rats received daily injection of Compound A or Compound D (10 mg/kg i.p.) or vehicle, starting at the onset of diabetes (hyperglycemia) and up to 6 months thereafter. Another group of non-diabetic rats also receiving vehicle were tested. All animals were continuously monitored for body weight, urine volume, blood sugar and glycated haemoglobin. In the first month of the study, all animals were tested for thermal nociception in a Hargreaves apparatus, weekly. After the first month this was done biweekly and then monthly. The testing consists of directing an infrared heat source onto the dorsal surface of the rat hindpaw and noting the time taken for the animal to remove its paw (see Hargreaves et al., J. Biol. Chem. (1988) 263(36):19392–7 for a description of the experimental method). […]

[9] = tested on: BB/W diabetic rats; assay: Nerve conduction velocity in BB/W model; assay type: in vivo; conditions: 10 mg/kg daily; vs diabetic vehicle controls, from 8 weeks to six months, FIG. 12
Text: as §7, with “monthly.” for “monthly. The testing consists of directing an infrared heat source onto the dorsal surface of the rat hindpaw and noting the time taken for the animal to remove its paw (see Hargreaves et al., J. Biol. Chem. (1988) 263(36):19392–7 for a description of the experimental method).”
Nerve conduction velocity was also measured every two weeks through the first eight weeks of treatment and every month thereafter through to the six months of treatment (see De Koning et al., Peptides, Vol. 8, No. 3, pp. 415–22 (1987) for a description of the experimental method). […]

[10] = tested on: STZ-diabetic rats; assay: Diabetic neuropathy in STZ model (motor and sensory nerve conduction velocity); assay type: in vivo
Protocol: In vivo Assay of NAALADase Inhibitors on Diabetic Neuropathy in STZ Model
Motor and sensory nerve conduction velocity was also measured in STZ-diabetic animals after 4, 8 and 12 weeks of treatment (see De Koning et al., supra, for a description of the experimental method). Briefly, stimulating needle electrodes were inserted close to the sciatic and tibial nerves with recording electrodes being placed subcutaneously over the distal foot muscles, in anesthetized rats.

[11] = 2 weeks survival after transection
[12] = 4 weeks survival after transection

For `O=C(O)c1cccc(CC(CCCS)C(=O)O)c1` (stereo not drawn) [Compound E, 3-Carboxy-alpha-(3-mercaptopropyl)-benzenepropanoic acid], which “neuropathic hyperalgesia (thermal response latency)” value [1] is on record?
Its value is “reversed towards normal”.

What about the “motor nerve conduction velocity” value [2] of the same molecule?
Its value is “reversed the motor nerve conduction velocity towards normal”.

Which “FIBER NUMBER” value ([3]; 8 week group) does the source give for `O=C(O)CCC(CCCS)C(=O)O` (centres unmarked) [Compound B, 2-(3-sulfanylpropyl)pentanedioic acid] here?
The value was 80785 ± 2121.

And the “PERCENT DIFFERENCE in fiber number between glaucoma and normal eye” value ([3]; 8 week group)?
Its value is −0.82 ± 2.97%.

What about the “FIBER NUMBER” value ([3]; 12 week group) of the same molecule?
The value was 90504 ± 1718.

And the “PERCENT DIFFERENCE in fiber number between glaucoma and normal eye” value ([3]; 12 week group)?
Its value is −3.21 ± 2.86%.

And the “remaining axons relative to the saline-treated rats” value ([4]; 2 weeks after transection)?
Its value is “twice”.

What about the “PERCENT DIFFERENCE in fiber number” value [4, 11] of the same molecule?
The value was 75.3 ± 14.8%.

And the “FIBER NUMBER” value [4, 11]?
The value was 19,550 ± 11,383.

What about the “PERCENT DIFFERENCE in fiber number” value [4, 12] of the same molecule?
The value was 93.4 ± 6.2%.

And the “FIBER NUMBER” value [4, 12]?
The value was 5,162 ± 5,017.

And the rotarod performance ([5]; normal non-HD mice, 30 mg/kg)?
Its rotarod performance is “no effect”.

What about the “rotarod performance (time on rotarod)” value ([5]; transgenic HD mice, 30 mg/kg from 10 weeks of age, vs vehicle, FIG. 33) of the same molecule?
Its value is “stayed longer on the rotarod”.

What about the survival time ([6]; female transgenic HD mice, vs vehicle, p-value=0.03, FIG. 37) of the same molecule?
The survival time was “significantly prolonged survival time”.

What about the median survival time ([6]; transgenic HD mice, all, vehicle 158.5 days, p-value=0.07, FIG. 35) of the same molecule?
Its median survival time is 184 days.

What does the source list for `O=C(O)CCC(CCS)C(=O)O` (centres unmarked) [Compound D, 2-(2-sulfanylethyl)pentanedioic acid]?
hyperalgesic response (withdrawal latency difference score) [7]: completely reversed; withdrawal latency [8]: longer withdrawal latencies; nerve conduction velocity [9]: significantly less severe nerve conduction deficits; treatment time at which increase of motor and sensory nerve conduction velocities was significant ([10]; 1 mg/kg dose): at the earlier time periods; motor and sensory nerve conduction velocities ([10]; either dose (10 mg/kg or 1 mg/kg), vs diabetic controls, FIGS. 10A and 10B): increased both motor and sensory nerve conduction velocities; neuropathic hyperalgesia (thermal response latency) [1]: reversed towards normal; neuropathic pain abnormalities ([1]; lower doses (1 and 3 mg/kg) initiated after 7 weeks of STZ treatment, FIG. 25): Significant reduction in pain abnormalities; motor nerve conduction velocity [2]: reversed the motor nerve conduction velocity towards normal; motor nerve conduction ([2]; lower doses (1 and 3 mg/kg), even 8 weeks after dosing, FIG. 27): remained unimproved; sensory nerve conduction ([2]; lower doses (1 and 3 mg/kg), within 4 weeks of treatment, FIG. 26): significantly improved towards normal; sensory and motor nerve conduction velocity deficits ([2]; untreated until 60 days after STZ treatment, external CRO, FIGS. 28 and 29): Partial reversal of both deficits
